Results from US11420950B2, “Heterocyclicalkyl derivative compounds as selective histone deacetylase inhibitors and pharmaceutical compositions comprising the same” (Chong Kun Dang Pharmaceutical Corp., priority 2015, dated 2022).

Key:
HDAC1 = molecular target: T1, HDAC1 (Homo sapiens, UniProt Q13547); test: HDAC1 enzyme inhibition, HDAC1 fluorimetric drug discovery assay kit; assay type: biochemical; conditions: 100-10000 nM tested, 37° C. 60 minutes, fluorescence; read-out: HDAC1 (μM), ability to inhibit the activity of HDAC enzyme
T1 construct: purchased Enzolifesciences BML-AK511
Method: (§1) Using a HDAC1 fluorimetric drug discovery assay kit (Enzolifesciences: BML-AK511) and a HDAC6 human recombinant (Calbiochem: 382180), the HDAC enzyme inhibitory abilities of test compounds were measured. It was treated with 100, 1000 and 10000 nM concentrations for HDAC1 assay, and 0.1, 1, 10, 100 and 1000 nM concentrations for HDAC6 assay. It was allowed to react at 37° C. for 60 minutes, and then was treated with a developer and allowed to react at 37° C. for 30 minutes, after which the fluorescence intensity (Ex 390 nm; Em 460 nm) was measured using FlexStatin3 (Molecular Device).

[1] = tested on: adjuvant-induced arthritis models; test: Adjuvant-induced arthritis model, clinical score; assay type: in vivo; conditions: Lewis rat, vehicle 9-11
Method: […] of complete Freund's adjuvant (Chondrex) was injected intradermally into the tail of each Lewis rat to induce animal models. From one day before induction, the rats were divided into groups based on body weight, and the test compound was administered orally to the rats at various doses once a day, followed by evaluation.
Clinical score and body weight were measured twice a week from the day of first administration of the test compound. The clinical score was recorded as 0-4 points, and the total clinical score was evaluated after observing the foot of each rat (0: normal; and 16: the most severe edema).
The medicinal effect of the test compound in the arthritis models was evaluated based on the degree of joint edema, and a higher clinical score indicates a more severe degree of edema.

HDAC6 human recombinant = molecular target: T2, HDAC6 human recombinant (Homo sapiens, UniProt Q9UBN7); test: HDAC6 enzyme inhibition, fluorimetric assay; assay type: biochemical
T2 construct: purchased Calbiochem 382180
T2 sequence (Q9UBN7 1-1215): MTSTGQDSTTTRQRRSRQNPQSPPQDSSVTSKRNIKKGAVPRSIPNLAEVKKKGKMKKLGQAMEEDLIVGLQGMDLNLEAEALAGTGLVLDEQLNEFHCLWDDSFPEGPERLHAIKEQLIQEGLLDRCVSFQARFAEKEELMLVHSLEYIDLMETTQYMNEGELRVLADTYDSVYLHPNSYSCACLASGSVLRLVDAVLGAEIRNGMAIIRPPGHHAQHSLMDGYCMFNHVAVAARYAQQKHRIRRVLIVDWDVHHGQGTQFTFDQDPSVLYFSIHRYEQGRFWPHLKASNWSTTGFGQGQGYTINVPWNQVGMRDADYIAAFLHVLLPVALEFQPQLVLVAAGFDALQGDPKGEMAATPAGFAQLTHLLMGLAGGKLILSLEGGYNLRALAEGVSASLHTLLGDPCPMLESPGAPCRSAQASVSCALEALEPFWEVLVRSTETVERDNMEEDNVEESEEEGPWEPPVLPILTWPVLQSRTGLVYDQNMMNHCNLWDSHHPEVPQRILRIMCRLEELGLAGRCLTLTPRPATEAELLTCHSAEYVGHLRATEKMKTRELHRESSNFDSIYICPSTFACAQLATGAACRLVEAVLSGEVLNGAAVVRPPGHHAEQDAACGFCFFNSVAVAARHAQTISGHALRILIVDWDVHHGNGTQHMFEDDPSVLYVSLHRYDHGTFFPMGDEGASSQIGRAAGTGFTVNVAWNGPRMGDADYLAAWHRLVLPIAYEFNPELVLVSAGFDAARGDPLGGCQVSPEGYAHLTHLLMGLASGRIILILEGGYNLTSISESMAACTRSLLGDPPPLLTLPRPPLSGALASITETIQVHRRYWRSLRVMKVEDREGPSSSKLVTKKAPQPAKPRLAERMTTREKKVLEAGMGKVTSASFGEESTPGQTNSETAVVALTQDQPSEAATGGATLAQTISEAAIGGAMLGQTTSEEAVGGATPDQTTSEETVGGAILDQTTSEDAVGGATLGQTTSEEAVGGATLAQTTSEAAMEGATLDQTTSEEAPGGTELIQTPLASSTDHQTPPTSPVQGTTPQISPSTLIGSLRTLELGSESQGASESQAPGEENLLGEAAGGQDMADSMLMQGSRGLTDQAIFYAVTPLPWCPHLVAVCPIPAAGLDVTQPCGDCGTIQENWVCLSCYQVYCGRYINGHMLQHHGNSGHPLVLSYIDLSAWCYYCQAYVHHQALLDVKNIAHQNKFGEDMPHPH
Method: as §1

T1 sequence (Q13547 whole entry): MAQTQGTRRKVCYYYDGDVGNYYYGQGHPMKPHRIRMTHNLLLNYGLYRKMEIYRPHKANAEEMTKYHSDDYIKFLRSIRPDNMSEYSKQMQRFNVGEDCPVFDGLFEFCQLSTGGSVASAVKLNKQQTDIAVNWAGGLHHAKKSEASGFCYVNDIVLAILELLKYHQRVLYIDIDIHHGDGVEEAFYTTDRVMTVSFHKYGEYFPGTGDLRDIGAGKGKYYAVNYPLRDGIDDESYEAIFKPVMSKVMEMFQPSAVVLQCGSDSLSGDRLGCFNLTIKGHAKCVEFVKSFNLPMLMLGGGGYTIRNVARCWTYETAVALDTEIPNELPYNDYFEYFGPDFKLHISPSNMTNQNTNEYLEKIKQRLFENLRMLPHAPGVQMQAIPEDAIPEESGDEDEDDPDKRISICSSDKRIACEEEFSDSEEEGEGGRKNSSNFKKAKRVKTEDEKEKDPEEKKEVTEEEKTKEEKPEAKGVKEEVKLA

O=C(CCCCCCNC(=O)N1CCN(C(c2ccccc2)c2ccccc2)CC1)NO [Compound 1102, 4-benzhydryl-N-(7-(hydroxyamino)-7-oxoheptyl)piperazine-1-carboxamide]
IC50 (HDAC1): 3.84 µM
clinical score (joint edema, 0: normal; 16: the most severe edema) ([1]; 1 mg/kg orally once a day): 6-8
clinical score (joint edema, 0: normal; 16: the most severe edema) ([1]; 10 mg/kg orally once a day): 4-6
clinical score (joint edema, 0: normal; 16: the most severe edema) ([1]; 50 mg/kg orally once a day): 1-3
IC50 (HDAC6 human recombinant; 0.1-1000 nM tested, 37° C. 60 minutes, fluorescence, read-out: HDAC6 (μM), ability to inhibit the activity of HDAC enzyme): 0.004 µM
selectivity for HDAC1/6 enzymes (HDAC1/HDAC6) (HDAC6 human recombinant; ratio of HDAC1 to HDAC6 values): 960 fold
